Assay results taken from ChEMBL document CHEMBL1201862, “PubChem BioAssay data set” (2004).
Active and inactive are the calls of the source.

How the values were obtained:
Format in all cases: functional
Aurora kinase B = Aurora kinase B (Homo sapiens, UniProt Q96GD4)
Aurora kinase A = Aurora kinase A (Homo sapiens, UniProt O14965);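 further: value from the Navigating the Kinome kinase panel profiling, panel entry STK6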
[1] = molecular target: Vascular endothelial growth factor receptor 2 (Homo sapiens, UniProt P35968)
Sequence of Vascular endothelial growth factor receptor 2 (P35968 whole entry): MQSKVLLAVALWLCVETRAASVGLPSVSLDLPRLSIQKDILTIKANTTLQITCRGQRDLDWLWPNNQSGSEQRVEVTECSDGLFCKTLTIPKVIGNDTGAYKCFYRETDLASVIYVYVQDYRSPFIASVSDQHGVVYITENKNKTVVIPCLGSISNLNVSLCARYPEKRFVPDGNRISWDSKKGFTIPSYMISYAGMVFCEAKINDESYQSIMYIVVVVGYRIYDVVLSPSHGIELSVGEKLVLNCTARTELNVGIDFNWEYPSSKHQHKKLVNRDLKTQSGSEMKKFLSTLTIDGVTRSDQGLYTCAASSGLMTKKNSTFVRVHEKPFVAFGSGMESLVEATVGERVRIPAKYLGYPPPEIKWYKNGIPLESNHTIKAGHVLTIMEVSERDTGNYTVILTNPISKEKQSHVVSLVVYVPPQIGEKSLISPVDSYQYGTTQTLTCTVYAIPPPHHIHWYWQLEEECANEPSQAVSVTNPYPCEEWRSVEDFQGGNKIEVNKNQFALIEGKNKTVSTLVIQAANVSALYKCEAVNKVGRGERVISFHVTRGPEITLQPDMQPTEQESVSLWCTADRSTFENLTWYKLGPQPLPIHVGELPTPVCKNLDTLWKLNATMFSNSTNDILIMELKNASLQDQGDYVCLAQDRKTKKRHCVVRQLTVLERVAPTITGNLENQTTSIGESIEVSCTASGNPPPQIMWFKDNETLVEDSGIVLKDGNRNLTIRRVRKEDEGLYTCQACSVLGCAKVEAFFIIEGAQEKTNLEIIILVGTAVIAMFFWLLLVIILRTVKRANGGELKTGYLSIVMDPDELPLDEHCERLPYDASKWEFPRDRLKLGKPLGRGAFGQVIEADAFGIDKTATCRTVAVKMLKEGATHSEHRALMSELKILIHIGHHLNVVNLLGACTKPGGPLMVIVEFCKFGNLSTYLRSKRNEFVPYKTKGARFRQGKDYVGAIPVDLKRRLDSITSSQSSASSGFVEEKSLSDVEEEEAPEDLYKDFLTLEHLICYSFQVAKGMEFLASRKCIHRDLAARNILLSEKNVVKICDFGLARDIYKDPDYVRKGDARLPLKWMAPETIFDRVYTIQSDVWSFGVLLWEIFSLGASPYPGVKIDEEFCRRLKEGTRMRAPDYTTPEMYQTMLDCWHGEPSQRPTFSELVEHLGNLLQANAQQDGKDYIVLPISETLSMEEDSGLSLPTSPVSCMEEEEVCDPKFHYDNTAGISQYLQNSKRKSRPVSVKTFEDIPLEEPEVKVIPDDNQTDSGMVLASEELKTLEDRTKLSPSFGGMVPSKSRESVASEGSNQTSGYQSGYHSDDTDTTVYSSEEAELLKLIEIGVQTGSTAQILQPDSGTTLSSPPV

[2] = molecular target: Interleukin-1 receptor-associated kinase 4 (Homo sapiens, UniProt Q9NWZ3)
Sequence of Interleukin-1 receptor-associated kinase 4 (Q9NWZ3 whole entry): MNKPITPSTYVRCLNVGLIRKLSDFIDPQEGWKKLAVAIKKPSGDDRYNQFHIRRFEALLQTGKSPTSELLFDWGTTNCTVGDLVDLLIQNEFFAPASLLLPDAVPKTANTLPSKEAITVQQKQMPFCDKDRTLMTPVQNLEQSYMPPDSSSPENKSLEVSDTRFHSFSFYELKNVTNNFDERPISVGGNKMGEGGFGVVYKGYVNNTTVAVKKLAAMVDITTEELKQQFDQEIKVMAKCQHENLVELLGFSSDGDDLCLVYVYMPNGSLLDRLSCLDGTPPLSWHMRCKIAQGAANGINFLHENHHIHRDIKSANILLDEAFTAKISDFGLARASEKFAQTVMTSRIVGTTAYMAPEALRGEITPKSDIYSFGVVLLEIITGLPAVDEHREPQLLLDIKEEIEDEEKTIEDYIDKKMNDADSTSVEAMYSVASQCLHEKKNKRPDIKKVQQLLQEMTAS

[3] = molecular target: Cyclin-dependent kinase 1 (Homo sapiens, UniProt P06493);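 further: Kinome-wide panel profiling, with the target listed as panel member CDC2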
Sequence of Cyclin-dependent kinase 1 (P06493 whole entry): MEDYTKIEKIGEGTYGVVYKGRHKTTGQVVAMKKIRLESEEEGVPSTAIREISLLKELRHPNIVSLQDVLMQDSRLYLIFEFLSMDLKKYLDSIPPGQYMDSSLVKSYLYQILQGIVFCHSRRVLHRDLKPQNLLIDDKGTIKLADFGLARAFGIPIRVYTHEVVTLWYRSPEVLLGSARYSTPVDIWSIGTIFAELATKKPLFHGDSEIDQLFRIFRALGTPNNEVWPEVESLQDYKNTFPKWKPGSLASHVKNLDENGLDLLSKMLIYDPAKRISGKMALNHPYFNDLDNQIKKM

SRSF protein kinase 1 = SRSF protein kinase 1 (Homo sapiens, UniProt Q96SB4);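 further: measured as one member of a kinome-wide kinase profiling panel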
[4] = molecular target: Serine/threonine-protein kinase MRCK alpha (Homo sapiens, UniProt Q5VT25)
[5] = molecular target: Cyclin-dependent kinase 5 (Homo sapiens, UniProt Q00535);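 further: CDK5 measured as one member of a kinase profiling panel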
Sequence of Cyclin-dependent kinase 5 (Q00535 whole entry): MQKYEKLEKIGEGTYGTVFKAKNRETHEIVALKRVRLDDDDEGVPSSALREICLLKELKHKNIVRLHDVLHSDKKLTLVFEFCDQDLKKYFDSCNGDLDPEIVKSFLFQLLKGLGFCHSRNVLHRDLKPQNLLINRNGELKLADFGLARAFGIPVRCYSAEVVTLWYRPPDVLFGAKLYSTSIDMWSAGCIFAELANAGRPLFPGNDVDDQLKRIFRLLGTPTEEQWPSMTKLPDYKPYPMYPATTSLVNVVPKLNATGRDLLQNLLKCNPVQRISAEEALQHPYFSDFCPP

[6] = molecular target: Melanin-concentrating hormone receptor 1 (Homo sapiens, UniProt Q99705); experiment: Late-stage fluorescence-based counterscreen for antagonists of the G-protein coupled receptor 7 (GPR7): cell-based dose response assay to identify antagonists of the melanin-concentrating hormone receptor 1 (MCHR1) Set 6.
Sequence of Melanin-concentrating hormone receptor 1 (Q99705 whole entry): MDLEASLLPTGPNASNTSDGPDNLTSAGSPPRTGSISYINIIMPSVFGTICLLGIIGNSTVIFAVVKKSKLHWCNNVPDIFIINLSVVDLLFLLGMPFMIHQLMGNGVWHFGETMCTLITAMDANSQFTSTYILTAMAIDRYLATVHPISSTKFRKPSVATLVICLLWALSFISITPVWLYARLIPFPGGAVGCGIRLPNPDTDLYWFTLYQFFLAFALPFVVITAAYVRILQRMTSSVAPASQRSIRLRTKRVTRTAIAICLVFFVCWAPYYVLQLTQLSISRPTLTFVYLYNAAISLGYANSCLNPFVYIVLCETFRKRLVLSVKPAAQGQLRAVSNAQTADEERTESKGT

[7] = molecular target: T1, Neuropeptides B/W receptor type 1 (Homo sapiens, UniProt P48145); experiment: human NPBW1 receptor blockade, IC50 – cell-based, fluorescence, dose response, set 6, late-stage follow-up (AID 588583)
T1 sequence (P48145 whole entry): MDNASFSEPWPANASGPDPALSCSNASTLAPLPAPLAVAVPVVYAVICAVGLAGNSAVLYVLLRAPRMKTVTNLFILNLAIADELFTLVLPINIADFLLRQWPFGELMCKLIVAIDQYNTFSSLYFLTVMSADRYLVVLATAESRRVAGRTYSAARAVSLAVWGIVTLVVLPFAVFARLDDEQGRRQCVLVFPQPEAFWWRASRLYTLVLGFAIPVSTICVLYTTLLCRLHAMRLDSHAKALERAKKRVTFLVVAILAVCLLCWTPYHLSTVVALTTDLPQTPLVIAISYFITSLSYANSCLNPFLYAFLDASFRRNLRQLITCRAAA

[8] = molecular target: Serine/threonine-protein kinase pim-1 (Homo sapiens, UniProt P11309)
[9] = molecular target: T2, Glycogen synthase kinase-3 beta (Homo sapiens, UniProt P49841);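 further: value comes from a broad kinome profiling panel, with GSK3B as the panel member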
T2 sequence (P49841 whole entry): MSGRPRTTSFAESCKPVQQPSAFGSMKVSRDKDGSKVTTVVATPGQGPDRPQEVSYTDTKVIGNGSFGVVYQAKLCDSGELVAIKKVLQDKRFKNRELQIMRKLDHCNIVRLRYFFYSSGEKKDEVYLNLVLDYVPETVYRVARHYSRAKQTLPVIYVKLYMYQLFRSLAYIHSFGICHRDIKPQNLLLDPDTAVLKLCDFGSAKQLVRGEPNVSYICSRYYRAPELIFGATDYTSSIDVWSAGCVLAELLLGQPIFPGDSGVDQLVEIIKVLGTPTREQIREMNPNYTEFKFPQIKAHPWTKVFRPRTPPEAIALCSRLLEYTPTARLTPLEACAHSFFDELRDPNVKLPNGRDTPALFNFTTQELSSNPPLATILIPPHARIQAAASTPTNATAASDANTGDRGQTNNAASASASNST

[10] = molecular target: cAMP-dependent protein kinase catalytic subunit alpha (Homo sapiens, UniProt P17612)
[11] = molecular target: Mitogen-activated protein kinase kinase kinase kinase 4 (Homo sapiens, UniProt O95819)
[12] = molecular target: Cell division cycle 7-related protein kinase (Homo sapiens, UniProt O00311);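 further: value obtained from a kinome-wide kinase panel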
[13] = molecular target: Dual specificity protein kinase CLK4 (Homo sapiens, UniProt Q9HAZ1)
[14] = molecular target: Homeodomain-interacting protein kinase 2 (Homo sapiens, UniProt Q9H2X6);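 further: measured within a kinome-wide kinase profiling panel, HIPK2 being one panel member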
[15] = molecular target: T2, Glycogen synthase kinase-3 beta; experiment: inhibition of human GSK3B activity – biochemical, microfluidics, dry powder samples, set 2, dose response (AID 623989)
[16] = molecular target: Glycogen synthase kinase-3 alpha (Homo sapiens, UniProt P49840); experiment: GSK3A enzyme blockers, homolog specificity check – biochemical, microfluidics, dry powder samples, set 2, selectivity assay for GSK3beta inhibitor project, dose response (AID 623978)
[17] = molecular target: DNA dC->dU-editing enzyme APOBEC-3G (Homo sapiens, UniProt Q9HC16); experiment: Dose Response confirmation of small molecule APOBEC3G DNA Deaminase Inhibitors via a fluorescence-based single-stranded DNA deaminase assay. [Related pubchem assays (depositor defined):AID493012, AID493028]
[18] = molecular target: DNA dC->dU-editing enzyme APOBEC-3A (Homo sapiens, UniProt P31941); experiment: A3A deaminase inhibition for selectivity – biochemical, dose response (AID 504722)
Sequence of DNA dC->dU-editing enzyme APOBEC-3A (P31941 whole entry): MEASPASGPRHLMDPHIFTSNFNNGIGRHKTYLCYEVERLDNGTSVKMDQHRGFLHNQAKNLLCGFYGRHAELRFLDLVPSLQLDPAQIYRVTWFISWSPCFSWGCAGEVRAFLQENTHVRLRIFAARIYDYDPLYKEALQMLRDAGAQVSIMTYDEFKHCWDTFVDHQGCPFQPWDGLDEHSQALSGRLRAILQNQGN

[19] = molecular target: Cyclin-dependent kinase 5/CDK5 activator 1 (Homo sapiens, UniProt Q00535); experiment: inhibitors of human CDK5 activity – biochemical, microfluidic mobility shift, dry powder, set 2, selectivity assay for GSK3beta inhibitor project, dose response (AID 623979)
Sequence of Cyclin-dependent kinase 5/CDK5 activator 1 (Q00535 whole entry): as the sequence (Q00535 whole entry) above
Sequence of Cyclin-dependent kinase 5/CDK5 activator 1 (Q15078 whole entry, further chain): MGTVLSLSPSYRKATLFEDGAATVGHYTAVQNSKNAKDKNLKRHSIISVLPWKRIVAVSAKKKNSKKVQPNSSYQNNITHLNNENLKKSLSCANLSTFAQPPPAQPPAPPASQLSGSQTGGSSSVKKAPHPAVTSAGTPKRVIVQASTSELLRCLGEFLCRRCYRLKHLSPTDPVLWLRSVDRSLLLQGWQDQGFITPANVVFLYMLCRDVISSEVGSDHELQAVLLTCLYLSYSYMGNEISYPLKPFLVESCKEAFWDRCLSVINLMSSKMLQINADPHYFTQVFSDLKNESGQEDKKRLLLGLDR

Sequence of Aurora kinase B (Q96GD4 whole entry): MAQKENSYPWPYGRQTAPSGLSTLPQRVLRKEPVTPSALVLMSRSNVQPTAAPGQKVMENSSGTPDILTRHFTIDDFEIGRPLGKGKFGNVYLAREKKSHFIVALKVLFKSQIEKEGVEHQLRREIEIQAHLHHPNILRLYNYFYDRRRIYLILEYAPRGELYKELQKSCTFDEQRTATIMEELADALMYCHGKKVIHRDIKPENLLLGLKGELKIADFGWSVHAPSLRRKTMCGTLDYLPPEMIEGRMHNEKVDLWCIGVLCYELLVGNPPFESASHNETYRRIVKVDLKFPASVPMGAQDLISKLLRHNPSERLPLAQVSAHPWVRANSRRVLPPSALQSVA
Sequence of Aurora kinase A (O14965 whole entry): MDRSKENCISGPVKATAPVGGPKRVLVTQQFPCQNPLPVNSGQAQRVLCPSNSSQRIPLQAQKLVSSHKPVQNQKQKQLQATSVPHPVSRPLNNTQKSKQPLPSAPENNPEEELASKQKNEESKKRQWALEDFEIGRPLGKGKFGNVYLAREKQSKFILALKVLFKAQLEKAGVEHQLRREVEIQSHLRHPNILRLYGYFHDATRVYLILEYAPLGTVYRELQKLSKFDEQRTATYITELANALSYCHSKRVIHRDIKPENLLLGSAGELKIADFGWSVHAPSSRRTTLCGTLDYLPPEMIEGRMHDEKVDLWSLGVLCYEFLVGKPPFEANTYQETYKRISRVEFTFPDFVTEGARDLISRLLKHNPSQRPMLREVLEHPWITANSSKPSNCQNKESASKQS

In the case of `CC1(C)CC(C=Cc2ccc(Cl)cc2)=Cc2c1sc1ncnc(N)c21`, the Ki (Aurora kinase B) is reported as 200 nM (active), the Ki (Aurora kinase A) is reported as 100 nM (active) and the Ki [1] is reported as 126 nM (active).

`CN(c1ccccc1-c1ccc2c(c1)Nc1ccccc1NC2=O)S(C)(=O)=O` was tested, and the Ki [2] was 2510 nM (active), the Ki [3] was 3980 nM (active) and the Ki (SRSF protein kinase 1) was 5010 nM (active). The Ki [4] was 6310 nM (active) and the Ki [5] was 5010 nM (active).

For `N#CC(c1cc(F)ccc1F)c1c(Cl)cnn(Cc2cccc3ccccc23)c1=O` (stereo not drawn), the IC50 [6] was 255 nM (active) and the IC50 [7] was 255 nM (active).

With `CNCCOc1cncc(-c2ccc3[nH]nc(C)c3c2)c1` the Ki [8] was 794 nM (active), the Ki [2] was > 10000 nM (inactive) and the Ki [9] was 2510 nM (active). For the same compound, the Ki [10] was 794 nM (active), the Ki [11] was 79.4 nM (active) and the Ki [12] was 31.6 nM (active). For the same compound, the Ki [13] was 10 nM (active) and the Ki [14] was 2000 nM (active).

`Cc1ccc(-c2nnc(S)n2/N=C/c2ccncc2)cc1` was tested, and the AC50 [15] was 1480 nM (active), the AC50 [16] was 7710 nM (active) and the IC50 [17] was 2480 nM (active). The IC50 [18] was > 100000 nM (inactive) and the AC50 [19] was 19300 nM (active).
